The subject of test [1] is Av5E1aTK01i. The test is described as follows: GCV inhibition of vector replication in vitro, viral titer by TCID50 on 293 cells. Particulars: A549 cells transduced with Av5E1aTK01i; 10 μM GCV for 5 days; repeated three times. It counts as cell-based. As to the method:
(§1) FIG. 6. GCV Inhibition of Av5E1aTk01i Replication In Vitro. A549 cells were transduced with either Add1327 or Add1327Tk01i. Cells were then treated with 10 uM GCV for 5 days. Following the 5 day incubation, cells were harvested, washed in HBSS, and then freeze/thawed to prepare a crude viral lysate. Titers were then performed by standard TCID50 assays on 293 cells to determine viral titer. The experiment was repeated three times.
(§2) HSV-TK was placed into the E3 region of Add1327 to form Av5E1aTK01i. A549 cells were transduced with either Add1327 or Av5E1aTK01i. Cells were then treated with 10 μM GCV for 5 days. Following the 5 day incubation cells were harvested, washed in HBSS, and then freeze/thawed to prepare a crude viral lysate. Titers were then performed by standard TCID^50 assays on 293 cells to determine viral titer. The experiment was repeated three times.

The subject of a further test is Add1327. The test is described as above. The class given is cell-based. Particulars: A549 cells transduced with Add1327; 10 μM GCV for 5 days; repeated three times. The protocol: as §1, §2
Test [2] relates to Av5E1aTK01i. The test is described as follows: GCV inhibition of Av5E1aTk01i replication in vivo, immunohistochemistry of subcutaneous A549 tumors. Also noted: species or system nude mice. Particulars: A549 tumors injected with 1×10^9 pfu Av5E1aTK01i; IP GCV 75 mg/kg once a day for 5 days. As to the method: FIG. 7. GCV Inhibition of Av5E1aTk01i Replication In Vivo. Subcutaneous tumors were formed by injecting 1×10^7 A549 cells into the subcutaneous space of the right flank of nude mice. After tumors formed 1×10^9 pfu of Add1327Tk01i was injected into several animals containing tumors. After 5 days, half of the animals received 5 days of IP GCV treatment at 75 mg/kg once a day. At the end of this time frame all animals were sacrificed. Immunohistochemistry was performed on all samples for HSV-TK expression and hexon expression, the latter which is only expressed when the vector is replicating.
Subcutaneous tumors were formed by injecting 1×10^7 A549 cells into the subcutaneous space of the right flank of nude mice. After tumors formed, 1×10^9 pfu of Av5E1aTK01i was injected into several animals containing tumors. After 5 days half the animals received 5 days of IP GCV treatment at 75 mg/kg once a day. At the end of this time frame all animals were sacrificed. Immunohistochemistry was performed on all samples for HSV-TK expression and hexon expression, the latter which is only expressed when the vector is replicating.

On to `Nc1nc(O)c2ncn(COC(CO)CO)c2n1` [GCV, ganciclovir], for which, in the test with Av5E1aTK01i [1], the “drop in titer of a vector carrying the HSV-TK gene” value is given as “greater than 4 order of magnitude”. In the test with Add1327, the “effect on viral titer of an adenovirus not carrying the HSV-TK gene” value is reported as “no effect”. In the test with Av5E1aTK01i [2], the “hexon expression (only expressed when the vector is replicating), immunohistochemistry” value is listed as “severely diminished”.

For the origin of these results see patent US6638762B1, “Tissue-vectors specific replication and gene expression” (priority 1994, dated 2003).
